The source of these data is patent US20100113363A1, “Use of GLP-1 Peptides” (Novo Nordisk A/S, priority 1996, published 2010).

Where two headings read alike, the source gives them in different places. No end group written: not given here.

The conditions of assay [1]: rats, Tang-Christensen et al., cited from earlier work.
Assay [2] is described as follows: Appetite suppression in mice: sucrose consumption, tested immediately after intraperitoneal injection. Type of assay: in vivo. The following applies: 85 micrograms (3.4 mg/kg) intraperitoneally, 10 minute period, p-value 0.002. Here is the method:
Mice were deprived of their normal food for two days and given free access to a 20% sucrose solution on the first day of food deprivation. After the two day food deprivation period, the mice were injected intraperitoneally with 0.5ml of a solution containing the test substance. Immediately after injection, individual mice were placed in one of eight 15 cm square test boxes with a stainless steel grid floor and a glass drinking tube which projected into the box. […] Consumption of the sucrose solution was measured over a 10 minute period by electronically recording the total amount of contact with the sucrose solution during the test session. The degree of appetite suppression produced by a given test substance was determined by statistical comparison of the mean duration of sucrose consumption by control (vehicle treated) mice with that of mice treated with a test substance. The degree of appetite suppression in a treated group of mice was expressed as percent difference between the test and control group's response duration means. […]

A short description of assay [3]: Suppression of appetite in mice by subcutaneously injected synthetic GLP-1(7-36)amide: Complan consumption. Type of assay: in vivo. The settings on record: p<0.001. Here is the method: The test method was as described in Example 3 except that the mice were pre-exposed to formula milk (Complan®—a nutritionally complete infant milk substitute) for one day, then fasted […]. On the test day, consumption of Complan® was measured for each mouse during a 10 min period.
Mice were tested for appetite suppression by subcutaneous injection of GLP-1(7-36)amide dissolved in phosphate buffered saline.

The nature of assay [4]: iv infusion of GLP-1(7-36)amide in healthy human volunteers: visual analogue scale ratings and ad libitum lunch energy intake. The format is in vivo. The settings on record: iv infusion 50 pmol/(kg·h). The text has this: Healthy human volunteers (20 subjects) were in a double-blind crossover trial given an iv infusion of 50 pmol/(kg·h) of GLP-1(7-36)amide or saline on separate, but otherwise identical experimental days. The infusion was started at 9.00 and lasted until 15.00. At 9.45 the subjects received a fixed amount of breakfast and at 14.15 they had lunch of an identical composition but ad libitum. The subjects rated their feeling of satiety, hunger, fullness and appetite on a visual analogue scale every half hour. The results are given below:
The energy intake of each subjects was measured. The intakes were 3.9 MJ with GLP-1 and 4.3 MJ with Saline resulting in a p-value of 0.009.

The conditions of assay [5]: rats, Turton et al., cited from earlier work.
Where [6] appears, read: administered intracerebroventricularly.

Take “GLP-1(1-36)amide (HDEFERHAEGTFTSDVSSYLEGQAAKEFIAWLVKGR-NH2; UniProt P01275 92-127, looked up, fragment) [fragment 1-36 of GLP-1, C-terminal amide]”: in assay [1] (route not stated), the “effect on food intake” value is listed as “no effect”.
Turning to GLP-1(7-36)amide, the “suppression of sucrose consumption” value in assay [2] was found to be 60%. The same substance displayed a suppression of feeding in assay [3] (1 mg/kg subcutaneous, 30 min after injection) of 45%. Besides, the “maximum effect, suppression of feeding” value in assay [3] (20 mg/kg subcutaneous (highest dose tested)) came out at 60%. In assay [4] (ad libitum lunch, saline 4.3 MJ, p-value 0.009), this substance displayed an energy intake of 3.9 mJ. Further, the “Satiety (visual analogue scale)” value in assay [4] (versus saline, p = 0.006) was “GLP-1 > Saline, p = 0.006”. Further, in assay [4] (versus saline, p = 0.007), the “Appetite (visual analogue scale)” value is on record as “GLP-1 < Saline, p = 0.007”. The “Hunger (visual analogue scale)” value in assay [4] (versus saline, p = 0.007) is reported as “GLP-1 < Saline, p = 0.007”. Moreover, in assay [4] (versus saline, p = 0.010), the “Fullness (visual analogue scale)” value is “GLP-1 > Saline, p = 0.010”. The “effect on food intake” value was “profound effect” in assay [5] (setting [6]), “inactive” in assay [5] (peripheral administration), “profound effect” in assay [1] (setting [6]) and “no significant effect” in assay [1] (peripherally administered).
